Assay results: patent US9206192B2, “Trolox derivative-modified fat-soluble anti-cancer pharmaceutical compounds, preparations, preparing methods and use thereof” (CHIA TAI TIANQING PHARMACEUTICAL GROUP CO., LTD, priority 2011, dated 2015)

Legend:
Assay type in all cases: cell-based
liver cancer HePG2 cells = experiment: In vitro cytotoxicity test, MTT assay, liver cancer cells; conditions: Homo sapiens, 72 h incubation, read-out: GI50 Live cancer cells (HePG2)
Description: (§1) In this example, GI50 values (the concentration of a drug that inhibits the growth of cancer cells by 50%) of the novel anti-cancer pharmaceutical compounds of the present invention on the inhibition of human ovarian cancer cells (A2780s), colon cancer cells (HT-29), liver cancer HePG2 cells and lung cancer cells (A549) were determined by MTT assay, and further compared with that of anti-cancer drug irinotecan to evaluate in vitro cytotoxicity of the pharmaceutical compounds of the present invention.
(§2) MTT assay: Cells in logarithmic growth phase were seeded in 96-well culture plate at 100 μL/well and a cell density of 10^5/mL. After the cells were incubated for 18 h, the medium was replaced, and thereto the test compound samples with different concentrations were then added at 150 μL/well. The blank group was the wells to which only a RPMI 1640 culture medium comprising 10% fetal bovine serum was added without the addition of cells (for zero setting). The negative control group was the wells to which the equal volume of RPMI 1640 culture medium comprising 10% fetal bovine serum was added and the positive control group was the wells to which the equal volume of 13 μg/ml positive drug was added. Each group had three wells. […] After the crystal was completely dissolved, the absorbance (D) value of each well was detected on microplate reader at a wavelength of 490 nm. […]

[1] = tested on: human ovarian cancer cells (A2780s); experiment: In vitro cytotoxicity test, MTT assay, ovarian cancer cells; conditions: 72 h incubation, read-out: GI50 Ovarian cancer cell (A2780s)
Description: as §1
(§3) MTT assay: Cells in logarithmic growth phase were seeded in 96-well culture plate at 100 μL/well and a cell density of 10^5/mL. After the cells were incubated for 18 h, the medium was replaced, and thereto the test compound samples with different concentrations were then added at 150 μL/well. The blank group was the wells to which only a RPMI 1640 culture medium comprising 10% fetal bovine serum was added without the addition of cells (for zero setting). The negative control group was the wells to which the equal volume of RPMI 1640 culture medium comprising 10% fetal bovine serum was added and the positive control group was the wells to which the equal volume of 13 μg/ml positive drug was added. Each group had three wells. After the cells were incubated for 72 h, MTT (5 mg/mL) solution was added at 15 μL/well, and the cells were further incubated for 4 h. The supernatant was discarded, and DMSO was added at 150 μL/well. The mixture was shaken and blended for 10 min. After the crystal was completely dissolved, the absorbance (D) value of each well was detected on microplate reader at a wavelength of 490 nm. The cell growth inhibition rate was calculated according to the following equation: Cell growth inhibition rate=(1−average D value of test group/average D value of control group)×100%.

lung cancer cells (A549) = experiment: In vitro cytotoxicity test, MTT assay, lung cancer cells; conditions: Homo sapiens, 72 h incubation
Description: as §1, §3

[2] = tested on: colon cancer cells (HT-29); experiment: In vitro cytotoxicity test, MTT assay, colon cancer cells; conditions: Homo sapiens, 72 h incubation
Description: as §1, §2

SMILES | GI50 (liver cancer HePG2 cells) | GI50 [1] | GI50 (lung cancer cells (A549)) | GI50 [2]
CCc1c2c(nc3ccc(OC(=O)N4CCC(N5CCCCC5)CC4)cc13)-c1cc3c(c(=O)n1C2)COC(=O)[C@]3(O)CC [Irinotecan, irinotecan, reference compound] | 9440 nM | 19300 nM | 58.1 nM | 15200 nM
CCCCCCCCCCCCOC(=O)[C@@]1(C)CCc2c(C)c(OC(=O)CCC(=O)Oc3ccc4nc5c(c(CC)c4c3)Cn3c-5cc4c(c3=O)COC(=O)[C@]4(O)CC)c(C)c(C)c2O1 [MXL-002, 7-ethyl-10-hydroxycamptothecin R-(+)-6-hydroxy-2,5,7,8-tetramethylchroman-2-carboxylic acid dodecyl ester-6-succinate] | – | 17.8 nM | 2100 nM | –
CCCCCCCCCCCCCCCCOC(=O)[C@@]1(C)CCc2c(C)c(OC(=O)CCC(=O)Oc3ccc4nc5c(c(CC)c4c3)Cn3c-5cc4c(c3=O)COC(=O)[C@]4(O)CC)c(C)c(C)c2O1 [MXL-003, 7-ethyl-10-hydroxycamptothecin R-(+)-6-hydroxy-2,5,7,8-tetramethylchroman-2-carboxylic acid hexadecyl ester-6-succinate] | 164 nM | 16.9 nM | 169 nM | 45 nM
CCCCCCOC(=O)[C@@]1(C)CCc2c(C)c(OC(=O)CCC(=O)Oc3ccc4nc5c(c(CC)c4c3)Cn3c-5cc4c(c3=O)COC(=O)[C@]4(O)CC)c(C)c(C)c2O1 [MXL-001, 7-ethyl-10-hydroxycamptothecin R-(+)-6-hydroxy-2,5,7,8-tetramethylchroman-2-carboxylic acid n-hexyl ester-6-succinate] | – | 40.9 nM | 4600 nM | –
